What was measured:
VSV-G-driven entry = assay type: cell-based, VSV-G pseudovirus
[1] = tested on: SARS-COV-2-S-driven entry; assay type: cell-based, SARS-CoV-2 spike pseudovirus in A549 cells

| Compound | inhibition of VSV-G-driven entry (in words) (VSV-G-driven entry) | blocking effect on pseudovirus entry into host A549 cells [1] | inhibition of SARS-COV-2-S-driven entry (in words) [1] |
| --- | --- | --- | --- |
| COc1cc(C(=O)NS(=O)(=O)c2ccccc2C)ccc1Cc1cn(C)c2ccc(NC(=O)OC3CCCC3)cc12 [Zafirlukast] | not VSV-G-driven entry | blocking effect | inhibited |
| CN(C)C(=O)COC(=O)Cc1ccc(OC(=O)c2ccc(NC(=N)N)cc2)cc1 [camostat, Camostat Mesilate] |  |  | No inhibition |
| CCN1CCN(C(=O)N[C@@H](C(=O)N[C@@H]2C(=O)N3C(C(=O)O)=C(CSc4nnnn4C)CS[C@H]23)c2ccc(O)cc2)C(=O)C1=O [cefoperazone] |  |  | No inhibition |

Reference: patent publication US11255855B1, “COVID-19 spike-ACE2 binding assay for drug and antibody screening” (priority 2020, dated 2022)
